According to patent publication EP4653445A1, “CDK INHIBITOR AND CRYSTAL FORM OF PHARMACEUTICALLY ACCEPTABLE SALT THEREOF, AND USE THEREOF” (CSPC Zhongqi Pharmaceutical Technology (Shijiazhuang) Co., …, priority 2023, dated 2024):
“And” between values parts separate entries of the source, which are not always exact repeats. Equal entries are not always repeated. Structures can show the parent of a compound that is named as a salt.

Columns and labels:
[1] = system: HCC1187; experiment: In vitro tumor cell proliferation inhibition test (CTG); type: cell-based; details: 4-7 days; for IC50: Homo sapiens, HCC1187, Triple-negative breast cancer; for Maximum Inhibition Rate: Triple-negative breast cancer
Method: (§1) The cells were subcultured regularly, and those in the logarithmic growth phase were taken for plating. The cells were stained with trypan blue and the viable cells were counted. The cell concentration was adjusted to an appropriate level. The cell suspension was added to each well of the culture plate, and the culture medium without cells was added to the blank control wells. […] The compound working solution was added to the cell culture plate, and DMSO at the same final concentration was added to the solvent control wells. Then the plate was returned to the incubator for 4-7 days of culture. The cell viability was detected according to the instructions of the Promega CellTiter-Glo (CTG) Luminescent Cell Viability Assay Kit (Promega-G7573). […] The IC50 was calculated using the following equation: [formula] • X: log(concentration) • Y: response value, negatively correlated with X • HillSlope: slope factor • Note: […]

[2] = system: MCF-7; experiment: as above; type: cell-based; details: 4-7 days; for Maximum Inhibition Rate: HR+/HER2- Breast cancer; for IC50: Homo sapiens, MCF7, HR+/HER2- Breast cancer
Method: as §1

[3] = system: MDA-MB-231; experiment: as above; type: cell-based; details: 4-7 days; for IC50: Homo sapiens, MDA-MB-231, Triple-negative breast cancer; for Maximum Inhibition Rate: Triple-negative breast cancer
Method: as §1

[4] = system: MDA-MB-453; experiment: as above; type: cell-based; details: 4-7 days; for Maximum Inhibition Rate: HR-/HER2+ Breast cancer; for IC50: Homo sapiens, MDA-MB-453, HR-/HER2+ Breast cancer
Method: as §1

[5] = system: MDA-MB-468 (Rb-); experiment: as above; type: cell-based; details: 4-7 days; for Maximum Inhibition Rate: Breast cancer (primary resistance to Palbociclib); for IC50: Homo sapiens, MDA-MB-468, Breast cancer (primary resistance to Palbociclib)
Method: as §1

[6] = system: T47D; experiment: as above; type: cell-based; details: HR+/HER2- Breast cancer, 4-7 days; for IC50: Homo sapiens, T47D
Method: as §1

[7] = system: xMCF-7/Palbo-R; experiment: as above; type: cell-based; details: Breast cancer (acquired resistance to Palbociclib), 4-7 days
Method: as §1

[8] = system: A2780; experiment: as above; type: cell-based, Human; details: 4-7 days
Method: (§2) The tumor cell strains were cultured in an incubator at 37 °C with 5% CO2. The cells were subcultured regularly, and those in the logarithmic growth phase were taken for plating. The cells were stained with trypan blue and the viable cells were counted. The cell concentration was adjusted to an appropriate level. The cell suspension was added to each well of the culture plate, and the culture medium without cells was added to the blank control wells. The culture plate was incubated overnight in an incubator at 37 °C, 5% CO2, and 100% RH. […] The compound working solution was added to the cell culture plate, and DMSO at the same final concentration was added to the solvent control wells. Then the plate was returned to the incubator for 4-7 days of culture. The cell viability was detected according to the instructions of the Promega CellTiter-Glo (CTG) Luminescent Cell Viability Assay Kit (Promega-G7573).
(§3) The inhibition rates of the compound at different concentrations were calculated in Excel, then the inhibition curve was plotted using GraphPad Prism software and relevant parameters, including the minimum inhibition rate, maximum inhibition rate, and IC50 were calculated.

[9] = system: COLO 205; experiment: as above; type: cell-based, Human; details: 4-7 days
Method: as §2, §3

[10] = system: HCT 116; experiment: as above; type: cell-based, Human; details: 4-7 days
Method: as §2, §3

[11] = system: HT-29; experiment: as above; type: cell-based, Human; details: 4-7 days
Method: as §2, §3

[12] = system: Hep3B (Rb-); experiment: as above; type: cell-based, Human; details: Liver cancer, 4-7 days
Method: as §2, §3

[13] = system: Huh-7; experiment: as above; type: cell-based, Human; details: 4-7 days
Method: as §2, §3

[14] = system: JHH-7; experiment: as above; type: cell-based, Human; details: 4-7 days
Method: as §2, §3

[15] = system: MOLM-13; experiment: as above; type: cell-based, Human; details: 4-7 days
Method: as §2, §3

[16] = system: MV-4-11; experiment: as above; type: cell-based, Human; details: 4-7 days
Method: as §2, §3

[17] = system: NCI-H211; experiment: as above; type: cell-based, Human; details: 4-7 days
Method: as §2, §3

[18] = system: SK-MEL-5; experiment: as above; type: cell-based, Human; details: 4-7 days
Method: as §2, §3

[19] = Solubility comparison in water, SGF, FaSSIF and FeSSIF (HPLC of filtrates, XRPD of filter cakes); details: time not stated
[20] = Dynamic vapor sorption (DVS) test; type: physicochemical
Method: • Instrument: TA Instruments Q5000 SA • Detection method: 20 to 50 mg of the sample was placed in a tared sample basket and automatically weighed, and DVS testing was performed according to the parameters in Table 7: Step Time: 60 min; Equilibration Time per RH%: 1 hour; Total Gas Flow Rate: 200 sccm; Gradient mode: 0%-90%-0% humidity variation, with a humidity variation amount of 10% for each gradient level between 0% and 90%, and gradient endpoint was determined by dm/dt < 0.01% maintained for 10 minutes.

[21] = Stability test, samples placed open for 7 days (HPLC and XRPD); type: physicochemical; details: for XRPD-7days / Purity (Peak area%) 7 days: open
Description: Subsequently, the samples after 7 days were respectively detected by HPLC and XRPD to determine their chemical and physical stabilities.

[22] = as above; type: physicochemical; details: HPLC

CC(=O)c1c(C)c2cnc(Nc3ccc4c(c3)OC[C@@H]3CN(C5CCN(C)CC5)CCN43)nc2n(C2CCCC2)c1=O [Compound A]
IC50 [1]: 1110 nM | Maximum Inhibition Rate [1]: 99.777% | Maximum Inhibition Rate [2]: 99.937% | IC50 [2]: 76 nM | IC50 [3]: 3450 nM | Maximum Inhibition Rate [3]: 99.567% | Maximum Inhibition Rate [4]: 102.600% | Maximum Inhibition Rate ([4]; listed as compound A): ~100% | IC50 [4]: 384 nM | Maximum Inhibition Rate [5]: 99.693% | Maximum Inhibition Rate ([5]; listed as compound A): exceeding 99% | IC50 [5]: 440 nM | Maximum Inhibition Rate [6]: 99.910% | IC50 [6]: 1500 nM | IC50 [7]: 3090 nM | Maximum Inhibition Rate [7]: 99.677% | IC50 ([8]; Homo sapiens, A2780, Ovarian cancer): 438 nM | Maximum Inhibition Rate ([8]; Ovarian cancer): 98.887% | Maximum Inhibition Rate ([9]; Colorectal cancer): 99.093% | IC50 ([9]; Homo sapiens, COLO 205, Colorectal cancer): 734 nM | Maximum Inhibition Rate ([10]; Colorectal cancer): 99.244% | IC50 ([10]; Homo sapiens, HCT-116, Colorectal cancer): 134 nM | Maximum Inhibition Rate ([11]; Colorectal cancer): 95.622% | IC50 ([11]; Homo sapiens, HT-29, Colorectal cancer): 113 nM | IC50 ([12]; Homo sapiens, Hep3B): 3330 nM | Maximum Inhibition Rate [12]: 99.055% | Maximum Inhibition Rate ([12]; listed as compound A): exceeding 99% | IC50 ([13]; Homo sapiens, Huh-7, Liver cancer): 107 nM | Maximum Inhibition Rate ([13]; Liver cancer): 99.447% | IC50 ([14]; Homo sapiens, JHH7, Liver cancer): 107 nM | Maximum Inhibition Rate ([14]; Liver cancer): 99.394% | Maximum Inhibition Rate ([15]; Hematological tumor): 99.993% | IC50 ([15]; Homo sapiens, MOLM-13, Hematological tumor): 370 nM | Maximum Inhibition Rate ([16]; Hematological tumor): 99.897% | IC50 ([16]; Homo sapiens, MV4-11, Hematological tumor): 102 nM | IC50 ([17]; Homo sapiens, NCI-H211, Small cell lung cancer): 201 nM | Maximum Inhibition Rate ([17]; Small cell lung cancer): 99.883% | IC50 ([18]; Homo sapiens, SK-MEL-5, Melanoma): 9500 nM | Maximum Inhibition Rate ([18]; Melanoma): 99.213% | solubility in SGF ([19]; SGF, listed as free base): greater than 5 mg/mL | solubility in water ([19]; water): approximately 0.003 mg/mL

CC(=O)c1c(C)c2cnc(Nc3ccc(N4CCNCC4)cn3)nc2n(C2CCCC2)c1=O [Palbociclib, reference compound]
IC50 [1]: > 5000 nM | Maximum Inhibition Rate [1]: 11.183% | Maximum Inhibition Rate [2]: 96.983% | IC50 [2]: 52 nM | IC50 [3]: > 5000 nM | Maximum Inhibition Rate [3]: 41.943% | IC50 [4]: 188 nM | Maximum Inhibition Rate [5]: 34% and 34.044% | IC50 [5]: > 5000 nM | Maximum Inhibition Rate [6]: 48.850% | IC50 [6]: > 5000 nM | IC50 [7]: 7700 nM | Maximum Inhibition Rate [7]: 98.367%

CC(=O)c1c(C)c2cnc(Nc3ccc4c(c3)OC[C@@H]3CN(C5CCN(C)CC5)CCN43)nc2n(C2CCCC2)c1=O [crystalline form B of the hydrochloride salt of compound A]
XRPD pattern / crystalline form after the DVS test ([20]; before vs after DVS test): did not change | XRPD-7days ([21]; 40°C /75%RH): Unchanged | Purity (Peak area%) 7 days ([21]; 40°C /75%RH, HPLC): 99.33 Peak area% | chemical stability ([21]; 60 °C, 92.5% RH and 40 °C/75% RH for 7 days, HPLC): chemically stable | XRPD-7days ([21]; 60°C): Unchanged | Purity (Peak area%) 7 days ([21]; 60°C, HPLC): 99.38 Peak area% | XRPD-7days ([21]; 92.5%RH): Unchanged | Purity (Peak area%) 7 days ([21]; 92.5%RH, HPLC): 99.36 Peak area% | crystalline form (XRPD) after 7 days ([21]; under the three conditions 60 °C, 92.5% RH and 40 °C/75% RH): remained unchanged | Purity (Peak area%) 0 day [22]: 99.31 Peak area%

CC(=O)c1c(C)c2cnc(Nc3ccc4c(c3)OC[C@@H]3CN(C5CCN(C)CC5)CCN43)nc2n(C2CCCC2)c1=O [crystalline form C of the benzenesulfonate of compound A]
moisture absorption ([20]; DVS, at 80% RH): 1.2% | XRPD-7days ([21]; 40°C /75%RH): remained unchanged | Purity (Peak area%) 7 days ([21]; 40°C /75%RH, HPLC): 98.79 Peak area% | XRPD-7days ([21]; 60°C): remained unchanged | Purity (Peak area%) 7 days ([21]; 60°C, HPLC): 98.89 Peak area% | XRPD-7days ([21]; 92.5%RH): changed into a new crystalline form | Purity (Peak area%) 7 days ([21]; 92.5%RH, HPLC): 98.84 Peak area% | Purity (Peak area%) 0 day [22]: 98.79 Peak area%
